Reference: publication PMC11538350, “Synthetic studies on the tetrasubstituted D-ring of cystobactamids lead to potent terephthalic acid antibiotics” (Communications Chemistry, 2024)
Converted amounts (≈) assume the structure as drawn.

How the values were obtained:
[1] = Protocol: 2.1 Materials and Methods […]
Determination of in vitro ADME properties
7, 8, 11 and 42. All samples were analysed via HPLC -MS/MS.
HPLC-MS/MS analysis of cystobactamids
AB Sciex QTrap 6500plus mass spectrometer. LC conditions were as follows: column:
Samples were run under acidic
For plasma stability experiments, samples were procured from commercial sources.
Human plasma was obtained from Antibodies-online (catalog no. ABIN5706569), and mouse plasma was obtained from Tebubio (catalog no. D408-04-0050).
The methods were performed in accordance with relevant guidelines and regulations and approved by the Helmholtz Centre for Infection Research. […]

E. ae. CIP 106754 = assay: MIC assay; type: cell-based, Enterobacter aerogenes; conditions: Klebsiella aerogenes, CIP106754, read-out: MIC E. ae. CIP 106754
Protocol: (§1) All cystobactamids were evaluated in MIC-assays on a panel of representative ESKAPE strains with focus on A. baumannii (Tables 1 and 2). Compared to our previous work[10],[17],[18], we specifically included more challenging test strains with known resistances against gyrase inhibitors.
(§2) 2.1 Materials and Methods
(§3) Strains were cultivated according to standard procedures. Bacterial cryo-cultures were
(§4) resuspended into fresh MHBII (cation adjusted) medium. The resuspension
(§5) assay plate (Corning, #3788).
(§6) in parallel as a positive control. […]

S. aur. ATCC-29213 = assay: MIC assay; type: cell-based; conditions: Staphylococcus aureus, ATCC29213, read-out: MIC S. aur. ATCC-29213
Protocol: as §1, §2, §3, §4, §5, §6

A. baum. CIP-107292 = assay: MIC assay; type: cell-based; conditions: Acinetobacter baumannii, CIP107292, read-out: MIC A. baum. CIP-107292
Protocol: as §1, §2, §3, §4, §5, §6

K. pneum. CIP-104298 = assay: MIC assay; type: cell-based; conditions: Klebsiella pneumoniae, CIP104298, read-out: MIC K. pneum. CIP-104298
Protocol: as §1, §2, §3, §4, §5, §6

K. pneum. R-1525 = assay: MIC assay; type: cell-based; conditions: Klebsiella pneumoniae, read-out: MIC K. pneum. R-1525
Protocol: as §1, §2, §3, §4, §5, §6

E. coli LM705 = assay: MIC assay; type: cell-based; conditions: Escherichia coli, LM705, read-out: MIC E. coli LM705
Protocol: as §1, §2, §3, §4, §5, §6

E. coli ATCC-25922 = assay: MIC assay; type: cell-based; conditions: Escherichia coli, ATCC25922, read-out: MIC E. coli ATCC-25922
Protocol: as §1, §2, §3, §4, §5, §6

A. baum. DSM-30008 = assay: MIC assay; type: cell-based; conditions: Acinetobacter baumannii, DSM30008, read-out: MIC A. baum. DSM-30008
Protocol: as §1, §2, §3, §4, §5, §6

A. baum. ATCC BAA-1710 = assay: MIC assay; type: cell-based; conditions: Acinetobacter baumannii, ATCCBAA1710, read-out: MIC A. baum. ATCC BAA-1710
Protocol: as §1, §2, §3, §4, §5, §6

A. baum. CIP-105742 = assay: MIC assay; type: cell-based; conditions: Acinetobacter baumannii, CIP105742, read-out: MIC A. baum. CIP-105742
Protocol: as §1, §2, §3, §4, §5, §6

E. cloacae ATCC BAA-2468 = assay: MIC assay; type: cell-based; conditions: Enterobacter cloacae, ATCCBAA2468, read-out: MIC E. cloacae ATCC BAA-2468
Protocol: as §1, §2, §3, §4, §5, §6

A. baum. R835 = assay: MIC assay; type: cell-based; conditions: Acinetobacter baumannii, read-out: MIC A. baum. R835
Protocol: as §1, §2, §3, §4, §5, §6

[2] = tested on: S. pneum. DSM-11865 (PRSP); assay: MIC assay; type: cell-based; conditions: Streptococcus pneumoniae, read-out: MIC S. pneum. DSM-11865 (PRSP)
Protocol: as §1, §2, §3, §4, §5, §6

P. ae. PA14ΔmexAB = assay: MIC assay; type: cell-based; conditions: Pseudomonas aeruginosa, read-out: MIC P. ae. PA14ΔmexAB
Protocol: as §1, §2, §3, §4, §5, §6

P. ae. PA14 = assay: MIC assay; type: cell-based; conditions: Pseudomonas aeruginosa, PA14, read-out: MIC P. ae. PA14
Protocol: as §1, §2, §3, §4, §5, §6

K. pneum. KP10581 = assay: MIC assay; type: cell-based; conditions: Klebsiella pneumoniae, read-out: MIC K. pneum. KP10581
Protocol: as §1, §2, §3, §4, §5, §6

[3] = PK study in mice after intravenous administration; type: in vivo, CD-1 mice; conditions: male, plasma
Protocol: and approved by the Helmholtz Centre for Infection Research.
Germany), 4-weeks-old, were used. The animal studies were conducted in accordance […]
Verbraucherschutz und Lebensmittelsicherheit, Oldenburg, Germany.
Then, plasma was transferred into a new Eppendorf tube and stored at -80°C until analysis.
Bioanalysis of pharmacokinetic and pharmacodynamic samples […]
mouse plasma from CD-1 mice. Glipizide was used as an internal standard. In addition, […]
mixer. […] Supernatants were […]
transferred to standard HPLC-glass vials. Samples were analyzed using LC-MS/MS conditions as described above. Peaks of PK samples were quantified using the calibration curve using AB Sciex Multiquant Software 3.0. The accuracy of the calibration curve was determined using QCs independently prepared. PK parameters were determined using a non-compartmental analysis with PKSolver.23
Figure S1: Plasma concentration curves for cystobactamid 42. Error bars were determined via standard deviation of two cassette experiments per compound (n=2). […]
(1 picture or pasted object on this page, not shown here)

E. faec. DSM-17050 (VRE) = assay: MIC assay; type: cell-based, Enterococcus faecium; conditions: Enterococcus, read-out: MIC E. faec. DSM-17050 (VRE)
Protocol: as §1, §2, §3, §4, §5, §6

ESKAPE strains = assay: MIC-assays on a panel of representative ESKAPE strains, summary in words; type: cell-based; conditions: summary of the MIC tables
Protocol: as §1, §2, §3, §4, §5, §6

[4] = metabolic stability assay, mouse microsomes; conditions: Table S4
[5] = metabolic stability assay, human microsomes; conditions: second microsome column of Table S4, head prints (M); mouse and human microsomes

With `C#CC[C@H](NC(=O)c1ccc(NC(=O)c2ccc(C#N)cc2)cc1)C(=O)Nc1ccc(NC(=O)c2ccc(C(=O)Nc3ccc(C(=O)O)cc3)c(O)c2OC(C)C)cc1` [Cmpd. 42] as the molecule, how does the “T1/2 PLASMA (H)” value ([1]; human plasma) read?
Its value is over 4 h.

What about the “T1/2 PLASMA (M)” value ([1]; mouse plasma) of the same molecule?
The value was over 4 h.

And the MIC (E. ae. CIP 106754)?
The MIC was 1 µg/mL (≈ 1.26 µM).

What about the MIC (S. aur. ATCC-29213) of the same molecule?
The MIC was 0.06 µg/mL (≈ 0.0757 µM).

And the MIC (A. baum. CIP-107292)?
The MIC was 0.05 µg/mL (≈ 0.0631 µM).

What about the MIC (K. pneum. CIP-104298) of the same molecule?
Its MIC is under 0.03 µg/mL.

What about the MIC (K. pneum. R-1525) of the same molecule?
Its MIC is under 0.03 µg/mL.

And the MIC (E. coli LM705)?
Its MIC is 0.06 µg/mL (≈ 0.0757 µM).

And the MIC (E. coli ATCC-25922)?
The MIC was under 0.03 µg/mL.

And the MIC (A. baum. DSM-30008)?
The MIC was 0.125 µg/mL (≈ 0.158 µM).

What about the MIC (A. baum. ATCC BAA-1710) of the same molecule?
The MIC was 0.03 to 0.05 µg/mL (≈ 0.0378 to 0.0631 µM).

And the MIC (A. baum. CIP-105742)?
Its MIC is under 0.03 µg/mL.

And the MIC (E. cloacae ATCC BAA-2468)?
Its MIC is 0.25 µg/mL (≈ 0.315 µM).

What about the MIC (A. baum. R835) of the same molecule?
The MIC was 0.5 µg/mL (≈ 0.631 µM).

And the MIC [2]?
Its MIC is under 0.03 µg/mL.

And the MIC (P. ae. PA14ΔmexAB)?
The MIC was under 0.03 µg/mL.

What about the MIC (P. ae. PA14) of the same molecule?
Its MIC is 4 µg/mL (≈ 5.05 µM).

And the MIC (K. pneum. KP10581)?
Its MIC is under 0.03 µg/mL.

What about the clearance ([3]; CD-1, mouse, iv, 1 mg/kg) of the same molecule?
The clearance was 17.9 ± 12.3 mL/min/kg.

What about the C0 ([3]; CD-1, mouse, iv, 1 mg/kg, concentration at t = 0 h, CD-1 mice, 1 mg/kg IV) of the same molecule?
The C0 was about 2200 ng/mL.

What about the Vd ([3]; CD-1, mouse, iv, 1 mg/kg, volume of distribution, CD-1 mice, 1 mg/kg IV, read-out: Vz) of the same molecule?
The Vd was about 1.4 L/kg.

What about the AUC(0-t) ([3]; mouse, CD-1 mice, 1 mg/kg IV) of the same molecule?
The AUC(0-t) was 1210 ± 832 ng·h/mL.

And the half-life ([3]; mouse, CD-1 mice, 1 mg/kg IV)?
Its half-life is 0.88 ± 0.1 h.

What about the MIC (E. faec. DSM-17050 (VRE)) of the same molecule?
Its MIC is under 0.03 µg/mL.

And the “antibacterial activity on the pathogen panel, in words” value (ESKAPE strains)?
The value was “exceptional activity”.

And the “T1/2 MICROSOMES (M)” value [4]?
Its value is over 1 h.

What about the “T1/2 MICROSOMES (M)” value [5] of the same molecule?
The value was over 1 h.
